We go through eleven compounds from patent US11530221B2, “Pyrimido[4,5-d]pyrimidin-2-one derivatives as protein kinase inhibitors” (KOREA INSTITUTE OF SCIENCE AND TECHNOLOGY, priority 2019, dated 2022).

What all share (format): biochemical
In one assay the target is c-Src (Homo sapiens, UniProt P12931). As to the kind of experiment: IC50 inhibitory activity against c-Src kinase. The method, then:
(§1) IC50 values were calculated by measuring the inhibitory activity against LCK, c-Src, p38a/MAPK14, ABL1, DDR1 and FGR kinases of the compounds of the present invention.

In the next assay the target is LYN (Homo sapiens, UniProt P07948). As to the kind of experiment: IC50 inhibitory activity against LYN kinase.
Sequence of LYN (P07948 whole entry): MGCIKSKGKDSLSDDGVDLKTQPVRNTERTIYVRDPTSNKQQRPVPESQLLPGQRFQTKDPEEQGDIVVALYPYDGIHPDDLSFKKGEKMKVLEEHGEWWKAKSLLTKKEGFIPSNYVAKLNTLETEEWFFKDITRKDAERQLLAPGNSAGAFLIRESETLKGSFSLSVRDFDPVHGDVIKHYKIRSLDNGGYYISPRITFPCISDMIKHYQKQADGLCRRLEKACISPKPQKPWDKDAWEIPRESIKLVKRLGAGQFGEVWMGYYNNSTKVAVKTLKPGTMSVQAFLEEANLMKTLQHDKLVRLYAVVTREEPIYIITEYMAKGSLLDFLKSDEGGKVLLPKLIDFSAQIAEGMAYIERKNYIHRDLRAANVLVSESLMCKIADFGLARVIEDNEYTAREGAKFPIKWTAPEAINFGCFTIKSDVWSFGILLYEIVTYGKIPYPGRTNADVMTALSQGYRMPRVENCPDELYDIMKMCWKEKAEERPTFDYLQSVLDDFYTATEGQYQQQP
For the next assay, the target named is LCK (Homo sapiens, UniProt P06239). Put plainly: IC50 inhibitory activity against LCK kinase. The method, then: as §1
Sequence of LCK (P06239 whole entry): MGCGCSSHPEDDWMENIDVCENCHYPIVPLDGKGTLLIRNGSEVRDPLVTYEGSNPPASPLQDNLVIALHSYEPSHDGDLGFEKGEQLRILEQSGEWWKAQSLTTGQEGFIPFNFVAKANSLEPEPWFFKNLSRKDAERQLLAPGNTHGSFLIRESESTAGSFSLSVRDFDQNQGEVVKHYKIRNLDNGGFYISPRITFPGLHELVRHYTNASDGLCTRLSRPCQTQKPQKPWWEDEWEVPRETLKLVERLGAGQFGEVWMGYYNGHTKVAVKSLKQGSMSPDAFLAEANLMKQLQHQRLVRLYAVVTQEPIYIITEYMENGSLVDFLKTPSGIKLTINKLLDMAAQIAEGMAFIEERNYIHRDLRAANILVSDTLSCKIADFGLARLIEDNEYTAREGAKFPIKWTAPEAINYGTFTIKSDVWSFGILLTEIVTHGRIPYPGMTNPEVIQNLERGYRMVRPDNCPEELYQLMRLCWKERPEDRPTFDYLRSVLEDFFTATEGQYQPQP
The target of the next assay is ABL1 (Homo sapiens, UniProt P00519). As to the kind of experiment: IC50 inhibitory activity against ABL1 kinase. As to the method: as §1
In a further assay the target is ABL1 (T315I) (Homo sapiens, UniProt P00519, T315I). As to the kind of experiment: IC50 inhibitory activity against ABL1 (T315I) kinase. As to the method: as §1
In another assay the target is p38a/MAPK14 (Homo sapiens, UniProt Q16539). Put plainly: IC50 inhibitory activity against p38a/MAPK14 kinase. As to the method:
as §1

Where two headings read alike, the source gives them in different places. Square brackets hold non-standard residues; d marks the D form. Peptide text beside a SMILES is read from it. * marks the point of attachment. X1 = Cc1ccc(Nc2ncc3c(n2)N(C)C(=O)N(c2cc(C(=O)*)ccc2C)C3)cn1; Aib = CC(C)(N)C(=O)O

Sequence of p38a/MAPK14 (Q16539 whole entry): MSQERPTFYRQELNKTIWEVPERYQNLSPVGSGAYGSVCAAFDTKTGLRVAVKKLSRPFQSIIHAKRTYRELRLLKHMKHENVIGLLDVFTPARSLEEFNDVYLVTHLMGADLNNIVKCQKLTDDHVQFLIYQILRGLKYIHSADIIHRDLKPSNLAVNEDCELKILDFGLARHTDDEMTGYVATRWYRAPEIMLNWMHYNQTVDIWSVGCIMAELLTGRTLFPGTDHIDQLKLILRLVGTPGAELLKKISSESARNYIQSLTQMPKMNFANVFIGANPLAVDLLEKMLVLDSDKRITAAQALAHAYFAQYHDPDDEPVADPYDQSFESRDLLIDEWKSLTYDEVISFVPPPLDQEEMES
Sequence of c-Src (P12931 whole entry): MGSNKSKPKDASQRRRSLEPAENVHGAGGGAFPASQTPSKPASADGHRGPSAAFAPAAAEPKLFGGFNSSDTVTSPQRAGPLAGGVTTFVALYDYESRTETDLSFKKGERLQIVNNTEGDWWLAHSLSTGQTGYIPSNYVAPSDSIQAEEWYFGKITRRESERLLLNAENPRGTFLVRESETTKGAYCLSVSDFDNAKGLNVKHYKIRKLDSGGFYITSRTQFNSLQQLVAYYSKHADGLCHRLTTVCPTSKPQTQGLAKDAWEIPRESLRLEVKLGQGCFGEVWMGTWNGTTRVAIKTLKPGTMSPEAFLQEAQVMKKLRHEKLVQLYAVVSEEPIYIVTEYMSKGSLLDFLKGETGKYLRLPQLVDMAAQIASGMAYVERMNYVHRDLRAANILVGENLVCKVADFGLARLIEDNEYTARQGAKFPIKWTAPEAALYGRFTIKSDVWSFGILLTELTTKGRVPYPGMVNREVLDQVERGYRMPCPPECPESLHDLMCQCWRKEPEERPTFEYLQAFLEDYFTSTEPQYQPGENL

`Cc1ccc(Nc2ncc3c(n2)N(C)C(=O)N(c2cc(NC(=O)c4ccc5c(c4)N(C)C(=O)[C@H](CC(C)C)N=C5c4ccccc4)ccc2C)C3)cn1` [Example 37, (S)-3-isobutyl-1-methyl-N-(4-methyl-3-(1-methyl-7-((6-methylpyridin-3-yl)amino)-2-oxo-1,4-dihydropyrimido[4,5-d]pyrimidin-3(2H)-yl)phenyl)-2-oxo-5-phenyl-2,3-dihydro-1H-benzo[e][1,4]diazepine-8-carboxamide]: the IC50 on c-Src (read-out: c-Src IC50), against LYN and on LCK (read-out: LCK IC50) was 1 to 200 nM in each case.
For the compound `CC[C@@H](C)[C@H]1N=C(c2ccccc2)c2ccc(C(=O)Nc3ccc(C)c(N4Cc5cnc(Nc6ccc(C)nc6)nc5N(C)C4=O)c3)cc2NC1=O` [Example 32, (R)-3-((R)-sec-butyl)-N-(4-methyl-3-(1-methyl-7-((6-methylpyridin-3-yl)amino)-2-oxo-1,4-dihydropyrimido[4,5-d]pyrimidin-3(2H)-yl)phenyl)-2-oxo-5-phenyl-2,3-dihydro-1H-benzo[e][1,4]diazepine-8-carboxamide], the IC50 at c-Src (read-out: c-Src IC50) is 1 to 200 nM; at ABL1 (read-out: ABL1 IC50), 1 to 200 nM; at ABL1 (T315I) (read-out: ABL1 (T315I) IC50), greater than 600 nM; on p38a/MAPK14 (read-out: p38a/MAPK14 IC50), 200 to 400 nM; at LCK (read-out: LCK IC50), 1 to 200 nM.
For `C=CCN1C(=O)[C@H](CC(C)C)N=C(c2ccccc2)c2ccc(C(=O)Nc3ccc(C)c(N4Cc5cnc(Nc6ccc(C)nc6)nc5N(C)C4=O)c3)cc21` [Example 38, (S)-1-allyl-3-isobutyl-N-(4-methyl-3-(1-methyl-7-((6-methylpyridin-3-yl)amino)-2-oxo-1,4-dihydropyrimido[4,5-d]pyrimidin-3(2H)-yl)phenyl)-2-oxo-5-phenyl-2,3-dihydro-1H-benzo[e][1,4]diazepine-8-carboxamide], the results for the IC50 at c-Src (read-out: c-Src IC50), against LYN and at LCK (read-out: LCK IC50) were 200 to 400 nM, 1 to 200 nM and 1 to 200 nM, respectively.
Turning to `Cc1ccc(Nc2ncc3c(n2)N(C)C(=O)N(c2cc(NC(=O)c4ccc5c(c4)N(Cc4ccccc4)C(=O)[C@H](C)N=C5c4ccccc4)ccc2C)C3)cn1` [Example 31, (S)-1-benzyl-3-methyl-N-(4-methyl-3-(1-methyl-7-((6-methylpyridin-3-yl)amino)-2-oxo-1,4-dihydropyrimido[4,5-d]pyrimidin-3(2H)-yl)phenyl)-2-oxo-5-phenyl-2,3-dihydro-1H-benzo[e][1,4]diazepine-8-carboxamide], the IC50 at c-Src (read-out: c-Src IC50) is 1 to 200 nM; on ABL1 (read-out: ABL1 IC50), 1 to 200 nM; on ABL1 (T315I) (read-out: ABL1 (T315I) IC50), greater than 600 nM; at p38a/MAPK14 (read-out: p38a/MAPK14 IC50), 1 to 200 nM; on LYN it was 1 to 200 nM; at LCK (read-out: LCK IC50), 1 to 200 nM.
For the compound `Cc1ccc(Nc2ncc3c(n2)N(C)C(=O)N(c2cc(NC(=O)CNC(=O)c4ccc([N+](=O)[O-])c(OCC(C)C)c4)ccc2C)C3)cn1` [Example 52, 3-isobutoxy-N-(2-((4-methyl-3-(1-methyl-7-((6-methylpyridin-3-yl)amino)-2-oxo-1,4-dihydropyrimido[4,5-d]pyrimidin-3(2H)-yl)phenyl)amino)-2-oxoethyl)-4-nitrobenzamide], the IC50 is 1 to 200 nM on ABL1 (read-out: ABL1 IC50), greater than 600 nM on ABL1 (T315I) (read-out: ABL1 (T315I) IC50) and 400 to 600 nM at p38a/MAPK14 (read-out: p38a/MAPK14 IC50).
As to `CC1=N[C@H](Cc2ccccc2)C(=O)Nc2cc(C(=O)Nc3ccc(C)c(N4Cc5cnc(Nc6ccc(C)nc6)nc5N(C)C4=O)c3)ccc21` [Example 35, (R)-3-benzyl-5-methyl-N-(4-methyl-3-(1-methyl-7-((6-methylpyridin-3-yl)amino)-2-oxo-1,4-dihydropyrimido[4,5-d]pyrimidin-3(2H)-yl)phenyl)-2-oxo-2,3-dihydro-1H-benzo[e][1,4]diazepine-8-carboxamide], the IC50 at c-Src (read-out: c-Src IC50), at LYN and at LCK (read-out: LCK IC50) was 1 to 200 nM in each case.
On to `Cc1ccc(Nc2ncc3c(n2)N(C)C(=O)N(c2cc(NC(=O)c4ccc5c(c4)NC(=O)[C@H](C)N=C5c4ccccc4)ccc2C)C3)cn1` [Example 30, (S)-3-methyl-N-(4-methyl-3-(1-methyl-7-((6-methylpyridin-3-yl)amino)-2-oxo-1,4-dihydropyrimido[4,5-d]pyrimidin-3(2H)-yl)phenyl)-2-oxo-5-phenyl-2,3-dihydro-1H-benzo[e][1,4]diazepine-8-carboxamide], for which the IC50 on c-Src (read-out: c-Src IC50) was 1 to 200 nM; at ABL1 (read-out: ABL1 IC50), 1 to 200 nM; at ABL1 (T315I) (read-out: ABL1 (T315I) IC50) it was greater than 600 nM; on p38a/MAPK14 (read-out: p38a/MAPK14 IC50) it was 1 to 200 nM; at LCK (read-out: LCK IC50), 1 to 200 nM.
For the compound `Cc1ccc(Nc2ncc3c(n2)N(C)C(=O)N(c2cc(C(=O)N[C@H](C(=O)N4CCC[C@@H]4C(=O)NC(C)(C)C(=O)N[C@@H](CC(C)C)C(=O)N(C)C)C(C)C)ccc2C)C3)cn1` [Example 2, (R)—N-(1-(((S)-1-(dimethylamino)-4-methyl-1-oxopentan-2-yl)amino)-2-methyl-1-oxopropan-2-yl)-1-((4-methyl-3-(1-methyl-7-((6-methylpyridin-3-yl)amino)-2-oxo-1,4-dihydropyrimido[4,5-d]pyrimidin-3(2H)-yl)benzoyl)-L-valyl)pyrrolidine-2-carboxamide] (X1-V[dP][Aib]L-NMe2), the IC50 against c-Src is 200 to 400 nM; on ABL1 it was 200 to 400 nM; against ABL1 (T315I), greater than 600 nM; at p38a/MAPK14, greater than 600 nM; on LCK, 1 to 200 nM.
In the case of `Cc1ccc(Nc2ncc3c(n2)N(C)C(=O)N(c2cc(NC(=O)c4ccc([N+](=O)[O-])c(OCC(C)C)c4)ccc2C)C3)cn1` [Example 49, 3-isobutoxy-N-(4-methyl-3-(1-methyl-7-((6-methylpyridin-3-yl)amino)-2-oxo-1,4-dihydropyrimido[4,5-d]pyrimidin-3(2H)-yl)phenyl)-4-nitrobenzamide], the IC50 was 1 to 200 nM at ABL1 (read-out: ABL1 IC50), greater than 600 nM at ABL1 (T315I) (read-out: ABL1 (T315I) IC50) and 1 to 200 nM on p38a/MAPK14 (read-out: p38a/MAPK14 IC50).
For the compound `CC1=N[C@@H](Cc2ccccc2)C(=O)Nc2cc(C(=O)Nc3ccc(C)c(N4Cc5cnc(Nc6ccc(C)nc6)nc5N(C)C4=O)c3)ccc21` [Example 34, (S)-3-benzyl-5-methyl-N-(4-methyl-3-(1-methyl-7-((6-methylpyridin-3-yl)amino)-2-oxo-1,4-dihydropyrimido[4,5-d]pyrimidin-3(2H)-yl)phenyl)-2-oxo-2,3-dihydro-1H-benzo[e][1,4]diazepine-8-carboxamide], the IC50 at c-Src (read-out: c-Src IC50), against LYN and on LCK (read-out: LCK IC50) was 1 to 200 nM in each case.
`Cc1ccc(Nc2ncc3c(n2)N(C)C(=O)N(c2cc(NC(=O)c4ccc5c(c4)NC(=O)[C@H](Cc4ccccc4)N=C5c4ccccc4)ccc2C)C3)cn1` [Example 26, (S)-3-benzyl-N-(4-methyl-3-(1-methyl-7-((6-methylpyridin-3-yl)amino)-2-oxo-1,4-dihydropyrimido[4,5-d]pyrimidin-3(2H)-yl)phenyl)-2-oxo-5-phenyl-2,3-dihydro-1H-benzo[e][1,4]diazepine-8-carboxamide]: the IC50 was 1 to 200 nM at c-Src (read-out: c-Src IC50); 1 to 200 nM at ABL1 (read-out: ABL1 IC50); greater than 600 nM on ABL1 (T315I) (read-out: ABL1 (T315I) IC50); greater than 600 nM on p38a/MAPK14 (read-out: p38a/MAPK14 IC50); 1 to 200 nM at LCK (read-out: LCK IC50).
